Consider 18 compounds from patent US20100292266A1, “Oxazolyl Piperidine Modulators of Fatty Acid Amide Hydrolase” (priority 2006, published 2010).

The IC50 is the concentration that gives 50% inhibition.

Assay [1] deals with T1, FAAH (Homo sapiens, UniProt O00519).
T1 sequence (O00519 1-579): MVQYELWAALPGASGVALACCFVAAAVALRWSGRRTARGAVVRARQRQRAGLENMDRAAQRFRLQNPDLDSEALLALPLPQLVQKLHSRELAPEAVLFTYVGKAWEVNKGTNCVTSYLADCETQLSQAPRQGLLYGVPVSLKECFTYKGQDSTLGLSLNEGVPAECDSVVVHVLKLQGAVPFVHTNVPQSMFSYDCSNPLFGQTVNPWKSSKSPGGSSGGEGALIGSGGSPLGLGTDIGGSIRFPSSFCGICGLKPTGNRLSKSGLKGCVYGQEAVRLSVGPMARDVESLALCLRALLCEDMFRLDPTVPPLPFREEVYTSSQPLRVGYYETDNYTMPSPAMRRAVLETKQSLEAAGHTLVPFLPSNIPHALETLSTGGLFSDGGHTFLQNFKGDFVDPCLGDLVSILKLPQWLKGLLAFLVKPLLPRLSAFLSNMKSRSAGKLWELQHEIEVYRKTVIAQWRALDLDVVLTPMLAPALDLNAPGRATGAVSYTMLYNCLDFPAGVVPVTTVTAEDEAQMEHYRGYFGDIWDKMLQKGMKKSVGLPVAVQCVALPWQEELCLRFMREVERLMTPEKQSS
As to the kind of experiment: Assay Method 1: FAAH assay, 3H-anandamide hydrolysis in cell homogenate. As to conditions: T84 or transfected SK-N-MC cell homogenate, 80 nM 3H-AEA, 1 h rt, > = solubility limit or highest concentration tested. It counts as biochemical. Also noted: expressed in transfected cells. As for the experimental part: A. Transfection of Cells with Human FAAH
(§1) A 10-cm tissue culture dish with a confluent monolayer of SK-N-MC cells was split 2 days (d) prior to transfection. Using sterile technique, the media was removed and the cells were detached from the dish by the addition of trypsin. One fifth of the cells were then placed onto a new 10-cm dish. Cells were grown in a 37° C. incubator with 5% CO2 in Minimal Essential Media Eagle with 10% Fetal Bovine Serum. After 2 d, cells were approximately 80% confluent. These cells were removed from the dish with trypsin and pelleted in a clinical centrifuge. The pellet was re-suspended in 400 μL complete media and transferred to an electroporation cuvette with a 0.4 cm gap between the electrodes. Supercoiled human FAAH cDNA (1 μg) was added to the cells and mixed. The voltage for the electroporation was set at 0.25 kV, and the capacitance was set at 960 μF. After electroporation, the cells were diluted into complete media (10 mL) and plated onto four 10-cm dishes. Because of the variability in the efficiency of electroporation, four different concentrations of cells were plated. The ratios used were 1:20, 1:10, and 1:5, with the remainder of the cells being added to the fourth dish. The cells were allowed to recover for 24 h before adding the selection media (complete media with 600 μg/mL G418). After 10 d, dishes were analyzed for surviving colonies of cells. Dishes with well-isolated colonies were used. Cells from individual colonies were isolated and tested.
(§2) The assay mixture consisted of 50 μL of the cell homogenate, 10 μL of the test compound, and 40 μL of anandamide [1-^3H-ethanolamine] (^3H-AEA, Perkin-Elmer, 10.3 Ci/mmol), which was added last, for a final tracer concentration of 80 nM. The reaction mixture was incubated at rt for 1 h. During the incubation, 96-well Multiscreen filter plates (catalog number MAFCNOB50; Millipore, Bedford, Mass., USA) were loaded with 25 μL of activated charcoal (Multiscreen column loader, catalog number MACL09625, Millipore) and washed once with 100 μL of MeOH. Also during the incubation, 96-well DYNEX MicroLite plates (catalog number NL510410) were loaded with 100 μL of MicroScint40 (catalog number 6013641, Packard Bioscience, Meriden, Conn., USA). After the 1 h incubation, 60 μL of the reaction mixture were transferred to the charcoal plates, which were then assembled on top of the DYNEX plates using Centrifuge Alignment Frames (catalog number MACF09604, Millipore). The unbound labeled ethanolamine was centrifuged through to the bottom plate (5 min at 2000 rpm), which was preloaded with the scintillant, as described above. The plates were sealed and left at rt for 1 h before counting on a Hewlett Packard TopCount.
(§3) Where activity is shown as greater than (>) a particular value, the value is the solubility limit of the compound in the assay medium or the highest concentration tested in the assay.

For assay [2], the target named is T2, Rat FAAH (Rattus norvegicus, UniProt P97612).
T2 construct: expressed in transfected cells
T2 sequence (P97612 1-579): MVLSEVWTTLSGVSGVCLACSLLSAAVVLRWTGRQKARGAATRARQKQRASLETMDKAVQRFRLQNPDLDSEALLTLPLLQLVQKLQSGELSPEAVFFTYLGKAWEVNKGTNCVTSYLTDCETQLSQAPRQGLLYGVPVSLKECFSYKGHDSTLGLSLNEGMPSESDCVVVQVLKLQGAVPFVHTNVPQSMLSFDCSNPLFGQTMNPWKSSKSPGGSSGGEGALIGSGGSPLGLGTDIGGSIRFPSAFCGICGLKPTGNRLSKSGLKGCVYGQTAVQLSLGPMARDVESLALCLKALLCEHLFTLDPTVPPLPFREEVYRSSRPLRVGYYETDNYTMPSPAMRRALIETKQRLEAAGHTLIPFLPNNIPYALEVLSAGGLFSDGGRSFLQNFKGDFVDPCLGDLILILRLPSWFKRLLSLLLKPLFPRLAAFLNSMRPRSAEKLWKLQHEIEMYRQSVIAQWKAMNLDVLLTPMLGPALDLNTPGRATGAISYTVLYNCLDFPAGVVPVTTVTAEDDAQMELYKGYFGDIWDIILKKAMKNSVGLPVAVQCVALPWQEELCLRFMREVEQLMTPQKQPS
As to the kind of experiment: Assay Method 2: FAAH assay, 3H-anandamide hydrolysis in cell homogenate. The settings on record: transfected SK-N-MC cell homogenate, 80 nM 3H-AEA, 1 h rt, > = solubility limit or highest concentration tested. It is filed as biochemical. As for the experimental part: A. Transfection of Cells with Rat FAAH
as §1, with “rat” for “human”
as §2, with “incubated at […] for 1” for “incubated at rt for 1”, “labeled ethanolamine . was centrifuged” for “labeled ethanolamine was centrifuged”
as §3

Bounds are passed on as bounds.

As to `O=C(c1ncco1)C1CCN(Cc2cccc(Cl)c2)CC1` [Example 34, [1-(3-Chloro-benzyl)-piperidin-4-yl]-oxazol-2-yl-methanone], the IC50 in assay [1] was found to be 78 nM; in assay [2], 300 nM.

With `O=C(c1ncco1)C1CCN(Cc2ccc(Cl)cc2)CC1` [Example 35, [1-(4-Chloro-benzyl)-piperidin-4-yl]-oxazol-2-yl-methanone], the IC50 in assay [1] was 19 nM; in assay [2] it was 40 nM.

For the compound `O=C(c1ncco1)C1CCN(Cc2ccc(OC(F)(F)F)cc2)CC1` [Example 36, Oxazol-2-yl-[1-(4-trifluoromethoxy-benzyl)-piperidin-4-yl]-methanone], the IC50 in assay [1] came out at 25 nM; in assay [2] it was 40 nM.

Take `O=C(c1ncco1)C1CCN(Cc2cccc(OC(F)(F)F)c2)CC1` [Example 37, Oxazol-2-yl-[1-(3-trifluoromethoxy-benzyl)-piperidin-4-yl]-methanone]: the IC50 in assay [1] was found to be 25 nM; in assay [2] it was 40 nM.

In the case of `O=C(c1ncco1)C1CCN(Cc2ccc(F)c(F)c2)CC1` [Example 38, [1-(3,4-Difluoro-benzyl)-piperidin-4-yl]-oxazol-2-yl-methanone], the IC50 in assay [1] was 30 nM; in assay [2], 76 nM.

On to `Cn1ccc2cc(CN3CCC(C(=O)c4ncco4)CC3)ccc21` [Example 39, [1-(1-Methyl-1H-indol-5-ylmethyl)-piperidin-4-yl]-oxazot-2-yl-methanone], for which the IC50 was 80 nM in assay [1] and 2000 nM in assay [2].

Regarding `Cn1ccc2ccc(CN3CCC(C(=O)c4ncco4)CC3)cc21` [Example 40, [1-(1-Methyl-1H-indol-6-ylmethyl)-piperidin-4-yl]-oxazol-2-yl-methanone], the IC50 in assay [1] was 94 nM; in assay [2], 385 nM.

With `O=C(c1ncco1)C1CCN(Cc2ccc3cccnc3n2)CC1` [Example 41, (1-[1,8]Naphthyridin-2-ylmethyl-piperidin-4-yl)-oxazol-2-yl-methanone], the IC50 was determined as 309 nM in assay [1] and 1750 nM in assay [2].

In the case of `O=C(c1ncco1)C1CCN(Cc2ccc3[nH]ccc3c2)CC1` [Example 42], the IC50 was 519 nM in assay [1] and above 10000 nM in assay [2].

As to `COc1ccc(CN2CCC(C(=O)c3ncco3)CC2)cc1OC` [Example 43, [1-(3,4-Dimethoxy-benzyl)-piperidin-4-yl]-oxazol-2-yl-methanone], the IC50 in assay [1] was determined as 3000 nM; in assay [2] it was 6000 nM.

On to `O=C(c1ncco1)C1CCN(Cc2ccc(Cl)c(Cl)c2)CC1` [Example 44, [1-(3,4-Dichloro-benzyl)-piperidin-4-yl]-oxazol-2-yl-methanone], for which the IC50 in assay [1] and in assay [2] was 5 nM each time.

On to `O=C(c1ncco1)C1CCN(Cc2ccc3cc[nH]c3c2)CC1` [Example 45, [1-(1H-Indol-6-ylmethyl)-piperidin-4-yl]-oxazol-2-yl-methanone], for which the IC50 in assay [1] came out at 212 nM; in assay [2] it was 1600 nM.

In the case of `COc1ccc2cc(CN3CCC(C(=O)c4ncco4)CC3)ccc2c1` [Example 46, [1-(6-Methoxy-naphthalen-2-ylmethyl)-piperidin-4-yl]-oxazol-2-yl-methanone], the IC50 was 260 nM in assay [1] and 219 nM in assay [2].

In the case of `O=C(c1ncco1)C1CCN(Cc2ccc3ccccc3c2O)CC1` [Example 47, [1-(1-Hydroxy-naphthalen-2-ylmethyl)-piperidin-4-yl]-oxazol-2-yl-methanone], the IC50 in assay [1] was 4 nM; in assay [2], 7 nM.

Regarding `O=C(c1ncco1)C1CCN(Cc2cccc3ccccc23)CC1` [Example 48, (1-Naphthalen-1-ylmethyl-piperidin-4-yl)-oxazol-2-yl-methanone], the half-inhibitory concentration (IC50) in assay [1] came to 101 nM; in assay [2] it was 63 nM.

Consider `Cn1c(CN2CCC(C(=O)c3ncco3)CC2)nc2ccccc21` [Example 49, [1-(1-Methyl-1H-benzoimidazol-2-ylmethyl)-piperidin-4-yl]-oxazol-2-yl-methanone], for which the IC50 in assay [1] worked out at 37 nM; in assay [2], 91 nM.

As for `Cn1c(CN2CCC(C(=O)c3ncco3)CC2)cc2ccccc21` [Example 50, [1-(1-Methyl-1H-indol-2-ylmethyl)-piperidin-4-yl]-oxazol-2-yl-methanone], the IC50 in assay [1] stood at 4 nM; in assay [2], 8 nM.

Take `O=C(c1ncco1)C1CCN(Cc2ccc(Br)cc2)CC1` [Example 51, [1-(4-Bromo-benzyl)-piperidin-4-yl]-oxazol-2-yl-methanone]: the half-inhibitory concentration (IC50) in assay [1] was 12 nM; in assay [2], 33 nM.
